Test results published in US20250288632A1, “Viral Entry Inhibitors Derived From Botanicals” (priority 2022, published 2025).
In brackets after ≈: the same amount, converted by molar mass.

Legend:
[1] = system: wild type SARS-CoV-2 pseudovirion; experiment: microbe, parasite or virus in culture; assay type: cell-based; conditions: Severe acute respiratory syndrome coronavirus 2, read-out: EC50 % Inhibition (μg/mL)
[2] = system: SARS-CoV2 (Caco2); experiment: microbe, parasite or virus in culture; conditions: Severe acute respiratory syndrome coronavirus 2, Caco-2, 72 h
[3] = system: SARS-CoV2 (Vero); experiment: microbe, parasite or virus in culture; assay type: cell-based, SARS-CoV-2; conditions: Severe acute respiratory syndrome coronavirus 2, Vero, 48 h
[4] = Cytotoxicity assay measuring cell proliferation in PBM cells; assay type: cell-based; conditions: remdesivir
Procedure: Numbers in parentheses indicate percent inhibition at the highest concentration tested. Cytotoxicity assays measuring the cell proliferation in PBM and Vero cells were performed in parallel to the antiviral assays.

[5] = system: SARS-CoV2 (Calu3); experiment: microbe, parasite or virus in culture; assay type: cell-based, SARS-CoV-2; conditions: Severe acute respiratory syndrome coronavirus 2, Calu-3, 72 h

Compound CCN(CCO)CCCC(C)Nc1ccnc2cc(Cl)ccc12 (centres unmarked) [Hydroxy cholorquine] has an EC50 [1] of 1.14 µg/mL (≈ 3.39 µM).

Compound CCC(CC)COC(=O)[C@H](C)N[P@](=O)(OC[C@H]1O[C@@](C#N)(c2ccc3c(N)ncnn23)[C@H](O)[C@@H]1O)Oc1ccccc1 [Remdesivir] has an EC50 ([2]; read-out: Anti-SARS-CoV2 (Caco2) EC50) of 100 nM, an EC90 ([2]; read-out: Anti-SARS-CoV2 (Caco2) EC90) of 400 nM and an EC50 ([3]; read-out: Anti-SARS-CoV2 (Vero) EC50) of 600 nM. It also gave an EC90 ([3]; read-out: Anti-SARS-CoV2 (Vero) EC90) of 1600 nM, a CC50 [4] of 1200 nM and an EC50 ([5]; read-out: Anti-SARS-CoV2 (Calu3) EC50) of 2 nM. It also gave an EC90 ([5]; read-out: Anti-SARS-CoV2 (Calu3) EC90) of 20 nM.
